pEC50: −log10 of the molar value.
What was measured:
[1] = molecular target: T1, recombinant human AMPK α1β2γ1 (Homo sapiens, UniProt O43741+P54619+Q13131); experiment: Scintillation proximity assay (SPA), AMPK activation; format: biochemical
T1 construct: made in house
Method: (§1) Before the SPA assay, 200 nmol/l recombinant AMPK protein (α1β1γ1, α2β1γ1, α1β2γ1, α2β2γ1, α1(1–394), α1(1–335), α1(1–312)) was constructed, expressed, purified and fully phosphorylated as described previously. The SPA reactions were performed in 96-well plates in a final volume of 50 µl containing 20 mmol/l Tris-HCl, pH 7.5, 5 mmol/l MgCl2, 1 mmol/l DTT, 2 µmol/l biotin-SAMS, 2 µmol/l ATP and 7.4×10^3 Bq/well [γ-^33P]ATP. The reactions were initiated by the addition of 50 nmol/l recombinant AMPK protein to the reaction solutions, followed by incubation at 30°C for 2 hr. The reactions were then terminated by the addition of 40 µl of stop solution containing 80 µg streptavidin-coated SPA beads per well, 50 mmol/l EDTA and 0.1% Triton X-100 in PBS, pH 7.5, followed by incubation for 1 hr. Finally, 160 µl of suspension solution containing 2.4 mol/l CsCl, 50 mmol/l EDTA and 0.1% Triton X-100 in PBS, pH 7.5, was added to the reaction solution to suspend the SPA beads completely. The SPA signals were measured in a Wallac Microbeta plate counter (PerkinElmer, Waltham, MA, USA) 30 min later.

[2] = molecular target: T2, recombinant human AMPK α1β2γ1 (Homo sapiens, UniProt Q13131); experiment: as above; format: biochemical
T2 construct: made in house
T2 sequence (Q13131 10-559 limits assumed): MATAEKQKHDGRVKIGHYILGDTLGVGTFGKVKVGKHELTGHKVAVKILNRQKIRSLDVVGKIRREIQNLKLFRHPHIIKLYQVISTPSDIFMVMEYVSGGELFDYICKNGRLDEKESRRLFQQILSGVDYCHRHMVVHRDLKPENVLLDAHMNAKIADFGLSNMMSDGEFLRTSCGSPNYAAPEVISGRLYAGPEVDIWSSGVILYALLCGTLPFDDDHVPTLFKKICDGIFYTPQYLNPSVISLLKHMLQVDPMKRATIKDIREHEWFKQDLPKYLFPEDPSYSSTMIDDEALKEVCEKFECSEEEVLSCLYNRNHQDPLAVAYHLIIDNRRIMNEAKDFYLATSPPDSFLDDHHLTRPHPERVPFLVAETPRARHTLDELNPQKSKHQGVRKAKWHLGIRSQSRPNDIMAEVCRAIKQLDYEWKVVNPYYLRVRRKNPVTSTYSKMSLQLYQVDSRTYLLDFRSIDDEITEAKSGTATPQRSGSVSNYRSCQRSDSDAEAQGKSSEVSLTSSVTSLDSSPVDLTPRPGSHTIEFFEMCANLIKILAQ
T2 sequence (O43741 whole entry partner): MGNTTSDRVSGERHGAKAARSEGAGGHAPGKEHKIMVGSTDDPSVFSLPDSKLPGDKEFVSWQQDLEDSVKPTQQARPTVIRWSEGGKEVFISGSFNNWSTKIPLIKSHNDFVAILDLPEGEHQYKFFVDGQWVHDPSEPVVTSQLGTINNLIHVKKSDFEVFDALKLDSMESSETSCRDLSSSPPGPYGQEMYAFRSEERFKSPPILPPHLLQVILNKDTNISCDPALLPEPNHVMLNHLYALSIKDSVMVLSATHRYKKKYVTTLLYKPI
T2 sequence (P54619 whole entry partner): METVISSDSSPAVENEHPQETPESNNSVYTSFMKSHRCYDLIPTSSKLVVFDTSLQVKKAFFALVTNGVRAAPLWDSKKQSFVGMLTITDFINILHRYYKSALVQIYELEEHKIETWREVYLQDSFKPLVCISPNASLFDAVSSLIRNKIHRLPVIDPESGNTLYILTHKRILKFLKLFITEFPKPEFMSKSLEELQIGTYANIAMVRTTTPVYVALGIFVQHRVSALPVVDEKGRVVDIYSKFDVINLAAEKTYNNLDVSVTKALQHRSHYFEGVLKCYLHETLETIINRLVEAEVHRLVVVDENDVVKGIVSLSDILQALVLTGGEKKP
Method: as §1

[3] = molecular target: T3, recombinant human AMPK α2β1γ1 (Homo sapiens, UniProt P54619+P54646); experiment: as above; format: biochemical
T3 construct: made in house
T3 sequence (P54646 whole entry): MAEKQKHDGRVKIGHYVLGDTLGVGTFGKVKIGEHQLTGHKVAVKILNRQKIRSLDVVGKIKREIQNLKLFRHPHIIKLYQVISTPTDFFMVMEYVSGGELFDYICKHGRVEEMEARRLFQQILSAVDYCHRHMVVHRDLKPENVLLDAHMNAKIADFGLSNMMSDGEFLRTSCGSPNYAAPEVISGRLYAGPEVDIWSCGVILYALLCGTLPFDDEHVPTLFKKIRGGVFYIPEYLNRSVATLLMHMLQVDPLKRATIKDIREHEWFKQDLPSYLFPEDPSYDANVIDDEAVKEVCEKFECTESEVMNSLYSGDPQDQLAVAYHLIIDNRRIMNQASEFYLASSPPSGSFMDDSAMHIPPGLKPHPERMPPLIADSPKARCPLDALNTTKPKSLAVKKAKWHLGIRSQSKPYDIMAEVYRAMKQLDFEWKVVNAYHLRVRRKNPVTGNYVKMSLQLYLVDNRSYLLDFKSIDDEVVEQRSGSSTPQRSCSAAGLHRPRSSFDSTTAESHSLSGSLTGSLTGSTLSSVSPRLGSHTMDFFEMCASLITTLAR
T3 sequence (Q9Y478 whole entry partner): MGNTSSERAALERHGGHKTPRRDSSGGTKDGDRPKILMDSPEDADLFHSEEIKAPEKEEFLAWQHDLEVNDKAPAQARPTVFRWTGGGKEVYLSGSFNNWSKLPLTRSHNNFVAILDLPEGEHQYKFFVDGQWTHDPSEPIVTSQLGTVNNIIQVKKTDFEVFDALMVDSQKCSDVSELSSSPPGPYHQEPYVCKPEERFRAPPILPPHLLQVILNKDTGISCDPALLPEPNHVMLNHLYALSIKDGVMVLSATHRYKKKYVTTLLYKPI
T3 sequence (P54619 whole entry): as the sequence (P54619 whole entry partner) above
Method: as §1

[4] = molecular target: T4, recombinant human AMPK α2β2γ1 (Homo sapiens, UniProt O43741+P54619+P54646); experiment: as above; format: biochemical
T4 construct: made in house
T4 sequence (P54646 whole entry): as the sequence (P54646 whole entry) above
T4 sequence (O43741 whole entry partner): as the sequence (O43741 whole entry partner) above
T4 sequence (P54619 whole entry partner): as the sequence (P54619 whole entry partner) above
Method: as §1

[5] = molecular target: T5, recombinant human AMPK α2β2γ1 (Homo sapiens, UniProt P54646); experiment: as above; format: biochemical
T5 construct: made in house
T5 sequence (P54646 whole entry): as the sequence (P54646 whole entry) above
T5 sequence (O43741 whole entry partner): as the sequence (O43741 whole entry partner) above
T5 sequence (P54619 whole entry partner): as the sequence (P54619 whole entry partner) above
Method: as §1

human AMPK α1(1–312) = molecular target: T6, human AMPK α1(1–312) (Homo sapiens, UniProt Q13131); experiment: SPA, constitutively active kinase domain; format: biochemical; conditions: various concentrations
T6 construct: the constitutively active kinase domain (KD) α1(1–312) in SPA assay; made in house
T6 sequence (Q13131 10-321): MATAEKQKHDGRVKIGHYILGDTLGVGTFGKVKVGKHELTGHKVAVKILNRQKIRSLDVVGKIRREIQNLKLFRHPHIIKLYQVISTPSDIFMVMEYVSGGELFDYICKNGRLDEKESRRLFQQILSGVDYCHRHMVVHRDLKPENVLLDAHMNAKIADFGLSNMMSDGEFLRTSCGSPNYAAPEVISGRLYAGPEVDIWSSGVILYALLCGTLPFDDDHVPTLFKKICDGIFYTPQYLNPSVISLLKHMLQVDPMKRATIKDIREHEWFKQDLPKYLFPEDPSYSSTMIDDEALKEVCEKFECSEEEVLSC
Method: as §1

[6] = molecular target: T7, Recombinant human protein phosphatase-2Cα (PP2Cα) (Homo sapiens, UniProt P35813); experiment: PP2Cα activity with pNPP as substrate; format: biochemical; conditions: varying concentrations of ZLN024
T7 construct: purchased Abcam (Cambridge, UK)
T7 sequence (P35813 1-382): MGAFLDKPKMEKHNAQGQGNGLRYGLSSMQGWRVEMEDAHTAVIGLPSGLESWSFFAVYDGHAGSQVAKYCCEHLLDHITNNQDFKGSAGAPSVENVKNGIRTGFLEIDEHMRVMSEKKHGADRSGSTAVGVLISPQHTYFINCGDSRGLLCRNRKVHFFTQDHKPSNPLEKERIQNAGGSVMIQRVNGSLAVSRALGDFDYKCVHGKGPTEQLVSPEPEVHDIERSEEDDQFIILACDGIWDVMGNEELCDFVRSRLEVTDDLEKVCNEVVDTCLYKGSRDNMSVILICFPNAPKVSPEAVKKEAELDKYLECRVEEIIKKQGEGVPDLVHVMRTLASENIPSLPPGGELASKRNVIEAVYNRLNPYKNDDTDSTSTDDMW
Method: Recombinant human protein phosphatase-2Cα (PP2Cα) was obtained from Abcam (Cambridge, UK). PP2Cα activity was measured using pNPP as a substrate. The activity was measured in a SpectraMAX 340 plate reader at 37°C and […] for 120 sec. The assay was carried out in a 96-well plate in a final volume of 100 µl containing 50 mmol/l Tris-HCl, pH 7.6, 2 mmol/l DTT, 10 mmol/l MnCl2 and 10 mmol/l pNPP; the PP2Cα enzyme concentration was 400nmol/l.

AMPK α1β1γ1 [7] = molecular target: T8, AMPK α1β1γ1 (Homo sapiens, UniProt P54619+Q13131+Q9Y478); experiment: PP2Cα-catalyzed dephosphorylation of AMPK Thr-172; format: biochemical; conditions: 5 µmol/l ZLN024
Method: (§2) The dephosphorylation of AMPK was performed as described previously, [24].
Target sequence in this assay (Q13131 10-559 limits assumed): as the sequence (Q13131 10-559 limits assumed) above
Target sequence in this assay (Q9Y478 whole entry): as the sequence (Q9Y478 whole entry partner) above
Target sequence in this assay (P54619 whole entry): as the sequence (P54619 whole entry partner) above

AMPK α2β1γ1 = AMPK α2β1γ1 (Homo sapiens, UniProt P54619+P54646+Q9Y478); experiment: PP2Cα-catalyzed dephosphorylation of AMPK Thr-172; format: biochemical; conditions: 5 µmol/l ZLN024
Sequence of AMPK α2β1γ1 (P54646 whole entry): as the sequence (P54646 whole entry) above
Sequence of AMPK α2β1γ1 (Q9Y478 whole entry): as the sequence (Q9Y478 whole entry partner) above
Sequence of AMPK α2β1γ1 (P54619 whole entry): as the sequence (P54619 whole entry partner) above
Method: as §2

L6 myotubes [8] = experiment: Mitochondrial membrane potential in L6 myotubes; format: cell-based; conditions: various concentrations, 3 hr, vs DMSO
Source text: (§3) These assays were described previously, [25].

HeLa cells = experiment: AMPK and ACC phosphorylation in HeLa cells deficient in LKB1; format: cell-based
Source text: as §3

L6 myotubes [9] = experiment: Glucose uptake in L6 myotubes; format: cell-based; conditions: 3 hr, concentration-dependent
Source text: as §3

L6 myotubes [10] = experiment: Fatty acid (palmitate) oxidation in L6 myotubes; format: cell-based; conditions: 4 hr treatment
Method: The assay was initiated by adding [9,10-^3H(N)]-palmitic acid (PerkinElmer, Waltham, MA, USA) to a final concentration of 250 µmol/l and 5.55×10^4 Bq per well in DMEM. After incubation with the compound for 4 hr in differentiated L6 myotubes, sample from each well was added to charcoal slurry for centrifugation and then the radioactivity was measured.

rat primary hepatocytes [11] = experiment: ADP/ATP ratio in rat primary hepatocytes; format: cell-based; conditions: 3 hr
Source text: as §3

rat primary hepatocytes [12] = experiment: Gene expression (real-time PCR) in rat primary hepatocytes; format: cell-based
Source text: This assay was described previously. For details on primer sequences, see Legend for Table S1.

rat primary hepatocytes [13] = experiment: Glucose production (output) in rat primary hepatocytes; format: cell-based; conditions: 5 hr, concentration-dependent
Source text: as §3

AMPK α1β1γ1 [14] = molecular target: T8, AMPK α1β1γ1; experiment: Scintillation proximity assay (SPA), AMPK activation; format: biochemical; design: made in house
Method: as §1
Target sequence in this assay (Q13131 10-559 limits assumed): as the sequence (Q13131 10-559 limits assumed) above
Target sequence in this assay (Q9Y478 whole entry partner): as the sequence (Q9Y478 whole entry partner) above
Target sequence in this assay (P54619 whole entry partner): as the sequence (P54619 whole entry partner) above

recombinant AMPK α1β1γ1 = recombinant AMPK α1β1γ1 (Homo sapiens, UniProt Q13131); experiment: as above; format: biochemical; design: made in house
Sequence of recombinant AMPK α1β1γ1 (Q13131 10-559 limits assumed): as the sequence (Q13131 10-559 limits assumed) above
Sequence of recombinant AMPK α1β1γ1 (Q9Y478 whole entry partner): as the sequence (Q9Y478 whole entry partner) above
Sequence of recombinant AMPK α1β1γ1 (P54619 whole entry partner): as the sequence (P54619 whole entry partner) above
Method: as §1

AMPK α1(1–394) = AMPK α1(1–394) (Homo sapiens, UniProt Q13131); experiment: SPA, inactive α1 subunit truncation; format: biochemical; design: α1(1–394), α1(1–335), α1(1–312); made in house
Sequence of AMPK α1(1–394) (Q13131 10-403): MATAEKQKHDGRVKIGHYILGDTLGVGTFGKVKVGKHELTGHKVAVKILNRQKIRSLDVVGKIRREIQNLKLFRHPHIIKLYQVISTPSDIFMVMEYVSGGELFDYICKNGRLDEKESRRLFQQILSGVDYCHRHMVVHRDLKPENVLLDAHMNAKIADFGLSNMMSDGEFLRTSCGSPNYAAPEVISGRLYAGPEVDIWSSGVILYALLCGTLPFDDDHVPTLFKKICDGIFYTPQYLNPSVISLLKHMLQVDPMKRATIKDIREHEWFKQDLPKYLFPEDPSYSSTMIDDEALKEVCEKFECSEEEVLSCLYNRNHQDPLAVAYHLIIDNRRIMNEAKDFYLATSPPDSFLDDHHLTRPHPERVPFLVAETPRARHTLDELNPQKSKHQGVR
Method: as §1

[15] = primary hepatocytes, 21 hr incubation

T1 sequence (Q13131 10-559 limits assumed): as the sequence (Q13131 10-559 limits assumed) above
T1 sequence (O43741 whole entry partner): as the sequence (O43741 whole entry partner) above
T1 sequence (P54619 whole entry partner): as the sequence (P54619 whole entry partner) above

- pEC50 [1]: 5.96
- activation of α1β2γ1 activity [2]: 1.7 fold
- pEC50 ([3]; SPA): 6.02
- activation of α2β1γ1 activity ([3]; SPA): 1.7 fold
- additional activation of AMPK α2β1γ1 ([3]; ZLN024 increased to 10 µmol/l in the presence of saturating AMP (12.5 µmol/l)): 1.3 fold
- pEC50 [4]: 6.89
- activation of α2β2γ1 activity [5]: 1.6 fold
- effect on activity of constitutively active kinase domain α1(1–312) (human AMPK α1(1–312)): did not induce significant changes
- effect on PP2Cα activity [6]: no significant inhibition
- mRNA level of G6Pase (rat primary hepatocytes [12]; [15]): decreased significantly
- pEC50 (AMPK α1β1γ1 [14]): 6.38
- activation of α1β1γ1 activity (recombinant AMPK α1β1γ1): 1.5 fold
- maximal activation of α1(1–394) (AMPK α1(1–394)): 2.3 fold
- pEC50 (AMPK α1(1–394); read-out: EC50, activation of α1(1–394)): 6.04
Compound: Cc1ccc(OCCSc2ncccn2)c(Br)c1 [ZLN024]
- protection of AMPK α1β1γ1 against dephosphorylation by PP2Cα (AMPK α1β1γ1 [7]): provided protection against dephosphorylation
- protection of AMPK α2β1γ1 against dephosphorylation by PP2Cα (AMPK α2β1γ1): provided protection against dephosphorylation
- mitochondrial membrane potential (MMP) (L6 myotubes [8]): not affected
- phosphorylation of AMPK and ACC (HeLa cells; 3 hr, concentration-dependent): stimulated
- time to peak of AMPK and ACC phosphorylation (HeLa cells; ZLN024 20 µmol/l): ≤ 30 min
- time to start of increase of AMPK and ACC phosphorylation (HeLa cells; ZLN024 20 µmol/l): ≤ 15 min
- glucose uptake (L6 myotubes [9]): stimulated
- stimulation of palmitate oxidation (L6 myotubes [10]): 40%
- ADP/ATP ratio (rat primary hepatocytes [11]): not affected
- mRNA level of PEPCK (rat primary hepatocytes [12]; [15]): decreased significantly
- gene expression of fatty acid synthase (FAS) (rat primary hepatocytes [12]; rat primary hepatocytes, 21 hr): significantly decreased
- glucose production (rat primary hepatocytes [13]): obviously repressed

Reference: paper PMC3748009, “Novel Small-Molecule AMP-Activated Protein Kinase Allosteric Activator with Beneficial Effects in db/db Mice” (PLoS ONE, 2013)
